Measurements from patent US9359297B2, “Spirolactam derivatives and uses of same” (H. Lundbeck A/S, priority 2009, dated 2016).
Read-outs that look alike come from different tables or passages of the source.

Key:
[1] = biological target: mGluR5 (allosteric site, [3H]MPEP) (Homo sapiens, UniProt P41594); test: [3H]MPEP radioligand filtration binding assay on membrane homogenates; details: 5 nM [3H]MPEP; Ki from IC50 by Cheng and Prusoff equation
Method: Binding assays were performed as described in [J. A. O'Brien et al. Mol. Pharmacol., 2003, 64, 731-740] with slight modifications. Briefly, after thawing, the membrane homogenates were resuspended in 50 mM Tris-HCl, 0.9% NaCl binding buffer at pH 7.4 to a final assay concentration of 40 μg protein/well for [^3H]2-methyl-6-phenylethynyl-pyridine ([^3H] MPEP) (American Radiolabeled Chemicals, Inc., St. Louis, Mo.) filtration binding. Incubations included 5 nM [^3H] MPEP, membranes and either buffer or varying concentrations of compound. Samples were incubated for 60 min at room temperature with shaking. Non-specific binding was defined with 10 μM MPEP. After incubation, samples were filtered over a GF/C filter (presoaked in 0.25% polyethyleneimine (PEI)) and then washed 4 times using a Tomtec® Harvester 96® Mach III cell harvester (Tomtec, Hamden, Conn.) with 0.5 mL ice-cold 50 mM Tris-HCl (pH 7.4).
IC50 values were derived from the inhibition curve and Ki values were calculated according to the Cheng and Prusoff equation of Ki=IC50/(1+[L]/Kd) described in [Y. Cheng and W. H. Prusoff Biochem. Pharmacol. 1973, 22, 3099-3108] where [L] is the concentration of radioligand and Kd is its dissociation constant at the receptor, derived from the saturation isotherm.

[2] = biological target: T1, rat metabotropic glutamate receptor 5 (rmGluR5) (Rattus norvegicus, UniProt P31424); test: Calcium mobilization (FLIPR) assay for negative allosteric modulation, EC80 glutamate, rmGluR5 in HEK 293; type: cell-based; details: HEK293; rmGluR5, inhibition of EC80 glutamate response; read-out: FLIPR maximum inhibition
T1 construct: expressed in transfected cells
Method: The cDNA for rat metabotropic glutamate receptor 5 (rmGluR5) and the cDNA for human metabotropic glutamate receptor 5 (hmGluR5) were generous gifts from S. Nakanishi (Kyoto University, Kyoto, Japan). The rmGluR5 or hmGluR5 was stably expressed in a HEK 293 cell line and grown in Dulbecco's Modified Eagle Medium (DMEM) (Invitrogen, Carlsbad, Calif.) with supplements (10% bovine calf serum, 4 mM glutamine, 100 units/mL penicillin, 100 μg/mL streptomycin and 0.75 mM G1418) at 37° C., 5% CO2. Twenty-four hours prior to assay, cells were seeded into 384-well black wall microtiter plates coated with poly-D-lysine. Just prior to assay, media was aspirated and cells dye-loaded (25 μL/well) with 3 μM Fluo-4/0.01% pluronic acid in assay buffer (Hank's Balanced Saline Solution (HBSS)): 150 mM NaCl, 5 mM KCl, 1 mM CaCl2, 1 mM MgCl2, plus 20 mM N-2-Hydroxyethylpiperazine-N′-2-ethanesulfonic acid (HEPES), pH 7.4, 0.1% bovine serum albumin (BSA) and 2.5 mM probenicid) for 1 hour in 5% CO2 at 37° C. After excess dye was discarded, cells were washed in assay buffer and layered with a final volume equal to 30 μL/well. Basal fluorescence is monitored in a fluorometric imaging plate reader (FLIPR) (Molecular Devices, Sunnyvale, Calif.) with an excitation wavelength of 488 nm and an emission range of 500 to 560 nm. Laser excitation energy was adjusted so that basal fluorescence readings were approximately 10,000 relative fluorescent units. Cells were stimulated with an EC20 or an EC80 concentration of glutamate in the presence of a compound to be tested, both diluted in assay buffer, and relative fluorescent units were measured at defined intervals (exposure=0.6 sec) over a 3 min period at room temperature. Basal readings derived from negative controls were subtracted from all samples. Maximum change in fluorescence was calculated for each well. Concentration-response curves derived from the maximum change in fluorescence were analyzed by nonlinear regression (Hill equation). A negative modulator can be identified from these concentration-response curves if a compound produces a concentration dependent inhibition of the EC80 glutamate response.

male CD1 mice = test: Mouse marble burying (mMB) assay; type: in vivo; details: 30 mpk (sc), FIG. 1
Text: More specifically for the mMB testing, adult, male CD1 mice (Charles River Laboratories (Kingston, N.Y.)), weighing 25 to 30 g, were used. All animals were group-housed in a standard colony room with a 12:12 light/dark cycle (lights on at 6:00 am) for at least one week prior to testing. Food and water were provided ad libitum. Animals were weighed, tail marked, and randomly assigned to treatment groups before testing.
For each test, sixty minutes after the injection of vehicle or test compound, or 30 min after injection of the positive control, buspirone, mice were individually placed into test cages containing 1.5 in of Aspen bedding (PWI brand) and two rows of 10 marbles (20 marbles per test cage total). Filter tops were used to cover each test cage. Thirty minutes later, mice were removed from test cages and returned to their home cages. The number of fully visible marbles (less than ⅔ covered with bedding) were counted and subtracted from 20 to arrive at the number of marbles buried. Twelve mice were tested per group.
Testing included multiple tests with each test performed to evaluate buspirone hydrochloride (BUS; Sigma Aldrich) (positive control) and/or a compound of formula (I). […] Doses were measured in mg drug (salt form) per kg body weight. Data was analyzed using one-way ANOVA with post-hoc Dunnett's test.

[3] = test system: Male Rj: Wistar (Hans) rats; test: Vogel Conflict Test (punished drinking); type: in vivo; details: rat
Method: The “Vogel Conflict Test” as described by Vogel et al. [Psychopharmacologia, 1971, 21, 1-7] was used to detect anxiolytic activity of a compound of formula (I) because anxiolytics increase punished drinking. In the test, rats were deprived of water for approximately 48 hours and were then placed individually into a transparent Plexiglas® enclosure (15×32×34 cm) with a floor consisting of stainless steel bars (0.4 cm) spaced 1 cm apart. The back wall of the enclosure was made of opaque Plexiglas® thereby concealing the observer from the experimental animal. In the center of the opposite wall, 5 cm above the floor, a metal water spout protruded into the cage and was connected to one pole of a shock generator (Apelex: Type 011346). The other pole of the shock generator was connected to the metal grid floor.
The rat was left to explore until it found the water spout. Then, every time it drank, it received a slight electric shock (1.7 mA, 1 s) 2 seconds after it started lapping. The number of punished drinks was counted during a 3 minute test. The test was performed blind with 10 rats per group. Testing included multiple tests using reference compounds and a compound of formula (I) that were prepared and administered as described below in the LES test. Male Rj: Wistar (Hans) rats as described therein were used after acclimatization conditions were achieved. Data was analyzed by comparing treated groups with appropriate controls using unpaired Student's t tests.

[4] = biological target: T2, human metabotropic glutamate receptor 5 (hmGluR5) (Homo sapiens, UniProt P41594); test: Calcium mobilization (FLIPR) assay for negative allosteric modulation, EC80 glutamate, hmGluR5 in HEK 293; type: cell-based; details: HEK293; hmGluR5, inhibition of EC80 glutamate response; read-out: FLIPR maximum inhibition
T2 construct: expressed in transfected cells
Procedure, shortened: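 Stably transfected HEK 293 cells, Fluo-4-loaded, stimulated with EC80 glutamate plus test compound in HBSS/20 mM HEPES pH 7.4 with probenecid; FLIPR fluorescence read over 3 min at room temperature. Basal-subtracted maximum fluorescence change fitted by Hill equation; negative modulation seen as concentration-dependent inhibition of the EC80 response.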

C57BL/6NTac mice = details: three weeks treatment, cited from earlier work

T2 sequence (P41594 21-1212): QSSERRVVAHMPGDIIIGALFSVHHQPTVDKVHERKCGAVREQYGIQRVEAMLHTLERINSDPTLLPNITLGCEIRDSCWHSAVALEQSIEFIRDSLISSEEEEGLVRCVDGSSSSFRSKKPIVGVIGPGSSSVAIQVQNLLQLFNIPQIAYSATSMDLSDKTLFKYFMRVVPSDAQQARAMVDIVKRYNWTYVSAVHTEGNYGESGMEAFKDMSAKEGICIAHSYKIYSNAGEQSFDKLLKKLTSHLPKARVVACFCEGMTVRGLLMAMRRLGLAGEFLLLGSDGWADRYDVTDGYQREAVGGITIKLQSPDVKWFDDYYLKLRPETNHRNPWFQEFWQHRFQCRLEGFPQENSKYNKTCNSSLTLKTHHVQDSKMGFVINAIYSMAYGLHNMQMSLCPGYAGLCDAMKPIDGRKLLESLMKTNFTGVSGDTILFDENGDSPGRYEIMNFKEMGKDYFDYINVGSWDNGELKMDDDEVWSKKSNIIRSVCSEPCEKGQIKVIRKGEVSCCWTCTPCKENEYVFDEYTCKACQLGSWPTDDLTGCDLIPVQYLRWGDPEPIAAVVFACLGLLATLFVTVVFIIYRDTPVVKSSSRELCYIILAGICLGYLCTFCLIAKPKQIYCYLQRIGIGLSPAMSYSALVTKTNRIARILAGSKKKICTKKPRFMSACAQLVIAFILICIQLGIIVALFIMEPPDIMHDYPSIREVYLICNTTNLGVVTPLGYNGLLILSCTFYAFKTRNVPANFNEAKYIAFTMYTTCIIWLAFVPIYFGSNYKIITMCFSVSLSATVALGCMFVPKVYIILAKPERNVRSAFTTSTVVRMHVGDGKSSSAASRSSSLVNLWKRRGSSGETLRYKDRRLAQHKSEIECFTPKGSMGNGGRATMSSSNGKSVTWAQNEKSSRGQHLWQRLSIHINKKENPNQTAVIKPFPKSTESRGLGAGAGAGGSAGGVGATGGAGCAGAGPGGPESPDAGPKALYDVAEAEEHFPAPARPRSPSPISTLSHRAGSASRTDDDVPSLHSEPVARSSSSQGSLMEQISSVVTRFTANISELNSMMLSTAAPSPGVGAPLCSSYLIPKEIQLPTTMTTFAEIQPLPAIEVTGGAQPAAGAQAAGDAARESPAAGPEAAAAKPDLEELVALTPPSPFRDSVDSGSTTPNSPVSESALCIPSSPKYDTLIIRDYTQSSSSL
mGluR5 (allosteric site, [3H]MPEP), sequence (P41594 21-1212): as above
T1 sequence (P31424 21-1203): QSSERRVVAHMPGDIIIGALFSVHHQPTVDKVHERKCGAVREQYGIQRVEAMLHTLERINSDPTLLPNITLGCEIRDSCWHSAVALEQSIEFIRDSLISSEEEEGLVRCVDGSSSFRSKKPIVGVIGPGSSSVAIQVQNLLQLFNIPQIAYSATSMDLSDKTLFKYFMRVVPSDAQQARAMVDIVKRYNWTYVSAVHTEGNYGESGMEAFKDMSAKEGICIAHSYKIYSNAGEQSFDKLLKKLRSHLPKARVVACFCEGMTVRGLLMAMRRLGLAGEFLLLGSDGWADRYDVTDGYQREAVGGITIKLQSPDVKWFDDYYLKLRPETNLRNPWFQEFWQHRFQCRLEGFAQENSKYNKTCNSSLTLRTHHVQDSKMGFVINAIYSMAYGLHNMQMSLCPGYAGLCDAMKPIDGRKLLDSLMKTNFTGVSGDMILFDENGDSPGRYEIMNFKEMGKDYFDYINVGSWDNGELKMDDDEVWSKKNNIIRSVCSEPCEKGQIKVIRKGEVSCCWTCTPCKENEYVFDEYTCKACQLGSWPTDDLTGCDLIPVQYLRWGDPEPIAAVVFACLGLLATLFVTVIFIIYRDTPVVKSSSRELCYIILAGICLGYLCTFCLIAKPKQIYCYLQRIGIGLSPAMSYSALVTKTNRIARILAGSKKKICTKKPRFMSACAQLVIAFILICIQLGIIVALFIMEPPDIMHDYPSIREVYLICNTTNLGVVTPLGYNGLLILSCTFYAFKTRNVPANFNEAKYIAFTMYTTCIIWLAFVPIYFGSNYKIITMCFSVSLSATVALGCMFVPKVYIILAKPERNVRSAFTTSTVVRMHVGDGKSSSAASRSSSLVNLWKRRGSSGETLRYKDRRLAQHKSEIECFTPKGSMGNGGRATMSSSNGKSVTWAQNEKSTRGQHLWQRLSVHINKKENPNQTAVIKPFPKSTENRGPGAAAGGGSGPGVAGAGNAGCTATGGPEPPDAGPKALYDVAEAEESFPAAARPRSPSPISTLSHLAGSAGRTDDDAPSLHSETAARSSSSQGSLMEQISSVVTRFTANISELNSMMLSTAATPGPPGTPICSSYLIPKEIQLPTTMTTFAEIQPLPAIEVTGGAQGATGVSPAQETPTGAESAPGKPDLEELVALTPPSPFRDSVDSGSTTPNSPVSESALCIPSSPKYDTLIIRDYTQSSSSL

SMILES	Ki [1]	Emax [2]	activity in the Vogel Conflict Test ([3]; 30 mpk (p.o.))	Emax [4]	activity in the Vogel Conflict Test ([3]; 10 mpk (p.o.))	other results
O=C(N[C@@H]1CCC[C@@]2(CCN(c3cccc(Cl)c3)C2=O)C1)c1ccccn1 (single isomer, unassigned) [Example 5]	95 nM	81 to 99%	–	–	–	in vivo anxiolytic effect in mouse marble burying (male CD1 mice): statistically significant in vivo anxiolytic effect
O=C(N[C@@H]1CCC[C@@]2(CCN(c3cccc(F)c3)C2=O)C1)c1ccccn1 [Example 25, Pyridine-2-carboxylic acid [(5R,7R)-2-(3-fluoro-phenyl)-1-oxo-2-aza-spiro [4.5]dec-7-yl]-amide]	130 nM	81 to 99%	significant activity	–	–	–
Cc1nccc(C(=O)N[C@@H]2CCC[C@@]3(CCN(c4cc(F)cc(F)c4)C3=O)C2)n1 [Example 82, 2-Methyl-pyrimidine-4-carboxylic acid [(5R,7R)-2-(3,5-difluoro-phenyl)-1-oxo-2-aza-spiro[4.5]dec-7-yl]-amide]	–	–	–	73 to 95%	significant activity	–
Cc1nccc(N2CC[C@@]3(CCC[C@@H](NC(=O)c4cccc(F)c4)C3)C2=O)n1 [Example 147, 3-Fluoro-N-[(5R,7R)-2-(2-methyl-pyrimidin-4-yl)-1-oxo-2-aza-spiro[4.5]dec-7-yl]-benzamide]	–	–	significant activity	47 to 93%	significant activity	activity in the Vogel Conflict Test ([3]; 3 mpk (p.o.)): significant activity
CNCCC(Oc1ccc(C(F)(F)F)cc1)c1ccccc1 (centres unmarked) [fluoxetine]	–	–	–	–	–	effect on anxiety- and depression-like effects of seven weeks corticosterone in the OF, NSF and FST (C57BL/6NTac mice; 18 mg/kg/day ip): reversed the anxiety- and depression-like effects
CN(C)CCCN1c2ccccc2CCc2ccccc21 [imipramine]	–	–	–	–	–	effect on anxiety- and depression-like effects of seven weeks corticosterone in the OF, NSF and FST (C57BL/6NTac mice; 40 mg/kg/day ip): reversed the anxiety- and depression-like effects
